± gives the expanded uncertainty stated by the source.
How the values were obtained:
[1] = Molar enthalpy of transition or fusion; settings: Crystal; DSC
[2] = Crystal; DTA

- Molar enthalpy of transition or fusion [1]: 17.8 ± 0.478 kcal/mol
- Normal melting temperature [2]: 173.47 ± 0.61 °C
SMILES: O=C(O)/C=C/C(=O)O.OCCOCCN1CCN(C2=Nc3ccccc3Sc3ccccc32)CC1.OCCOCCN1CCN(C2=Nc3ccccc3Sc3ccccc32)CC1 [quetiapine fumarate]

Reference: the NIST ThermoML archive (doi:10.1021/acs.jced.7b00518)
